Each structure is given as a SMILES string. A value given as a limit tells only on which side of the number the result lay.

Holding throughout (type): cell-based
Experiment [1] concerns the target T1, Nav 1.7 (Homo sapiens, UniProt Q15858).
T1 construct: expressed in transfected cells
The experiment is described as follows: Whole-cell voltage clamp electrophysiology, IonWorks Quattro (marker a in Table of Examples). Conditions: marker a: IonWork Quattro data; read-out: Nav 1.7 activity. The text has this:
(§1) a.IonWork Quattro data, b=Manual patch clamp data, c=Automated patch clamp data M=Method
(§2) Whole-Cell Voltage Clamp Electrophysiology Assay
(§3) Patch-clamp electrophysiology is considered the gold standard technique for investigation of ion channel function and pharmacology. Using this method, sodium channel currents can be measured in cells, which stably (or transiently) express the sodium channel subtype of interest. Application of compounds during such experiments provides a functional measure of the activity and potency of compounds affecting the ion channel of interest.
(§4) Electrophysiological studies can be performed using automated or manual patch-clamp techniques. Automated patch-clamp instruments suitable for this work include the Ion Works HT (MDS), Ion Works Quattro (MDS), PatchLiner (Nanion technologies), Port-A-Patch (Nanion technologies), QPatch (Sophion) or any other suitable platform.
(§5) For recording in automated patch-clamp instruments, cells expressing the voltage-gated sodium channel subtype of interest are dispensed in appropriate chips (plates with more than one recording chambers each containing one or more apertures to generate whole-cell patches), as provided by the manufacturer. Typically, the whole-cell perforated patch configuration is used for probing the pharmacology of compounds in automated patch-clamp electrophysiology on sodium channels. Extracellular and intracellular buffers for such experiments are composed according to the literature, or according to the instructions provided by the manufacturer of the instruments. Test solutions, which contain the compounds to be tested, are applied to the cells expressing the sodium channel of interest by a pipetting system, typically integrated into the robots.
(§6) A suitable voltage stimulus protocol is used to activate voltage-gated sodium channel proteins of interest. A typical stimulus protocol may consist of sweeps of sequential voltage pulses starting from a holding potential (i.e. −65 mV), to a more positive and depolarising test pulse potential (i.e. −10 mV) and finally to a more negative and hyperpolarising potential (i.e. −100 mV). According to the biophysics of the voltage-gated ion channel of interest and interest in channel configuration the voltages and durations of the pulses as well as the overall frequency of sweeps applied might vary. Accordingly, a stimulus protocol was designed to assess compounds due to their potential to block NaV1.7 channels primarily in inactivated state. Selectivity over other voltage-gated sodium channel members was assessed by protocols that reflect the native function of the channels (i.e. heart rate or firing of neurons).
In general terms: The patch-clamp technique gives a direct electrical read-out from membranes.

Experiment [2] has as its target T1, Nav 1.7. The experiment in a line: Whole-cell voltage clamp electrophysiology, manual patch clamp (marker b in Table of Examples). Conditions: read-out: Nav 1.7 activity.
Description: as §1, §2, §3
(§7) Electrophysiological studies can also be performed using the whole cell configuration of the standard manual patch clamp technique as described in the literature (e.g. Pflugers Arch., 1981, 391(2), 85-100). In this assay, cells that express the voltage-gated sodium channel protein of interest are exposed to the drugs by conventional microperfusion systems, or by a home-built perfusion system. A suitable voltage stimulus protocol is used to activate the voltage-gated sodium channels.
as §6
(§8) Electrophysiological studies can also be performed using the whole cell configuration of the standard manual patch clamp technique as described in the literature (e.g. Pflugers Arch., 1981, 391(2), 85-100). In this assay, cells that express the human voltage-gated sodium channel protein of interest are exposed to the drugs by conventional microperfusion systems, or by a home-built perfusion system. A suitable voltage stimulus protocol is used to activate the voltage-gated sodium channels. A suitable voltage stimulus protocol may consist of sequential voltage pulses from a holding potential, each first hyperpolarizing the cell, then depolarizing the channels for a brief period. A particularly suitable holding potential may be a voltage allowing a fraction of channels to remain in an inactivated state, like −60 mV. A suitable hyperpolarizing voltage and duration may be −120 mV for 100 ms, and depolarization voltage and duration may be −20 mV for 25 ms, and a suitable frequency of pulses may be 0.1 Hz, but may also have other parameters. Accordingly, a stimulus protocol was designed to assess compounds due to their potential to block NaV1.7 channels primarily in inactivated state. Selectivity over other voltage-gated sodium channel members was assessed by protocols that reflect the native function of the channels (i.e. heart rate or firing of neurons).

Experiment [3] concerns the target T2, Nav1.5 (Homo sapiens, UniProt Q14524).
T2 construct: expressed in transfected cells
The experiment in a line: Inhibition of Nav1.5 as measured using manual patch clamp.
Description: as §3, §7, §6, §8
Inhibition of Nav1.5 by Compounds of formula (I) as measured using manual patch clamp

Experiment [4] has as its target T1, Nav 1.7. The experiment is described as follows: Whole-cell voltage clamp electrophysiology, automated patch clamp (marker c in Table of Examples). Conditions: marker c: Automated patch clamp data; read-out: Nav 1.7 activity. An outline of the steps: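 A voltage protocol weighted toward inactivated-state block was used to test compounds on stably expressing cells, with pulses from −65 mV holding to −10 mV test and −100 mV. Currents came from whole-cell automated patch-clamp recordings, either IonWorks Quattro or other automated instruments, usually in perforated-patch mode.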

Experiment [5] has as its target T2, Nav1.5. The experiment in a line: Inhibition of Nav1.5 as measured using QPatch.
Description: as §3, §4, §5, §6
Inhibition of Nav1.5 by Compounds of formula (I) as measured using QPatch

The mark [6] stands for this setting: marker b: Manual patch clamp data.

T1 sequence (Q15858 whole entry): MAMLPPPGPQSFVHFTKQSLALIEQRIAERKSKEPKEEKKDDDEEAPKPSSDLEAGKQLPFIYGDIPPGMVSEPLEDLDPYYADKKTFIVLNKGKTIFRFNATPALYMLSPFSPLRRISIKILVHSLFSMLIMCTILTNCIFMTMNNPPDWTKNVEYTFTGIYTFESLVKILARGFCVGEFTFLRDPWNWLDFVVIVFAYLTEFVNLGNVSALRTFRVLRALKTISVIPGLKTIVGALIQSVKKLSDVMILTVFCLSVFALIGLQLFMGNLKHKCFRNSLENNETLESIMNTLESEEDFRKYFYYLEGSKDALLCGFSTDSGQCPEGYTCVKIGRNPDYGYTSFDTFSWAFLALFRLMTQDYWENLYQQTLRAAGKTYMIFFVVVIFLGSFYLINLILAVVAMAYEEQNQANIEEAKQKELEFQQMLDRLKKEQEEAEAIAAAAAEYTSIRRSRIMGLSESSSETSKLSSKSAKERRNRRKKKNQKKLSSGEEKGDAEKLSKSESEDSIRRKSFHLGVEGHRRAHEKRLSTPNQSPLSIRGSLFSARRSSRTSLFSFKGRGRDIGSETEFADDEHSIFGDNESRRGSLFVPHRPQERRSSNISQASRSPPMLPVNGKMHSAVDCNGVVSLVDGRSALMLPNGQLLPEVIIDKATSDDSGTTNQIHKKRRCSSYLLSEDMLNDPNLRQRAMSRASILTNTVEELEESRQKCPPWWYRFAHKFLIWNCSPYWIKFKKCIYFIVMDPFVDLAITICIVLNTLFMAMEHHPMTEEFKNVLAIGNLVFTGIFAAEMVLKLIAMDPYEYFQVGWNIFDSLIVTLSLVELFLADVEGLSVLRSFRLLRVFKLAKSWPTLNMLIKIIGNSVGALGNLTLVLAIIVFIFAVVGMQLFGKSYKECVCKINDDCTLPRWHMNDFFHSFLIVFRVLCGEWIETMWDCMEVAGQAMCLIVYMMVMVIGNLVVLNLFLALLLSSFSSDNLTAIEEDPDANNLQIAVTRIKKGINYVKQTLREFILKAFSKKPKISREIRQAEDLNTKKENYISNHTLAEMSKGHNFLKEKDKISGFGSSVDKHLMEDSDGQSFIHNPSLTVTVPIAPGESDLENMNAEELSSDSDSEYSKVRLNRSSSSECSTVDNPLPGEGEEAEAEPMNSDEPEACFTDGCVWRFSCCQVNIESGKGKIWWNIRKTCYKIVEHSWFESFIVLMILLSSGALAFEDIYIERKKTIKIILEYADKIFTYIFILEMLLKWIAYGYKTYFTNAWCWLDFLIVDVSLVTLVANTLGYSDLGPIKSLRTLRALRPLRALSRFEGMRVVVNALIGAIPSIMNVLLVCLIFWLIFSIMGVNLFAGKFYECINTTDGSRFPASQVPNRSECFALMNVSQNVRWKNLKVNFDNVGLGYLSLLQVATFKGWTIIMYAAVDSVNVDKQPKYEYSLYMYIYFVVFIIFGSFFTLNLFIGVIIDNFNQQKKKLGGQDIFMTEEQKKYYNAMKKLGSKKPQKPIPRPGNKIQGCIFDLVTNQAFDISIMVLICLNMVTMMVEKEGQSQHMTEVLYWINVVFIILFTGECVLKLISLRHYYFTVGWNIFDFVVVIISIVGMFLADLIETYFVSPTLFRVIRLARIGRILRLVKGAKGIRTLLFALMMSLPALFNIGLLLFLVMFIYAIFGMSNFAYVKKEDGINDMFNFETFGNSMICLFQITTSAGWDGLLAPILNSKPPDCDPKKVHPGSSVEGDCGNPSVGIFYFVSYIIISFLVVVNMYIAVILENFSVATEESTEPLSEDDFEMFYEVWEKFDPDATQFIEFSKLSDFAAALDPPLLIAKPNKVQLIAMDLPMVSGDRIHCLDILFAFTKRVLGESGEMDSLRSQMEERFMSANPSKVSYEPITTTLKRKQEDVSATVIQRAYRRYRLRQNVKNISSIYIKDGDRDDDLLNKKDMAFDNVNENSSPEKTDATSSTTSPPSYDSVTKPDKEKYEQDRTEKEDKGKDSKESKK
T2 sequence (Q14524 whole entry): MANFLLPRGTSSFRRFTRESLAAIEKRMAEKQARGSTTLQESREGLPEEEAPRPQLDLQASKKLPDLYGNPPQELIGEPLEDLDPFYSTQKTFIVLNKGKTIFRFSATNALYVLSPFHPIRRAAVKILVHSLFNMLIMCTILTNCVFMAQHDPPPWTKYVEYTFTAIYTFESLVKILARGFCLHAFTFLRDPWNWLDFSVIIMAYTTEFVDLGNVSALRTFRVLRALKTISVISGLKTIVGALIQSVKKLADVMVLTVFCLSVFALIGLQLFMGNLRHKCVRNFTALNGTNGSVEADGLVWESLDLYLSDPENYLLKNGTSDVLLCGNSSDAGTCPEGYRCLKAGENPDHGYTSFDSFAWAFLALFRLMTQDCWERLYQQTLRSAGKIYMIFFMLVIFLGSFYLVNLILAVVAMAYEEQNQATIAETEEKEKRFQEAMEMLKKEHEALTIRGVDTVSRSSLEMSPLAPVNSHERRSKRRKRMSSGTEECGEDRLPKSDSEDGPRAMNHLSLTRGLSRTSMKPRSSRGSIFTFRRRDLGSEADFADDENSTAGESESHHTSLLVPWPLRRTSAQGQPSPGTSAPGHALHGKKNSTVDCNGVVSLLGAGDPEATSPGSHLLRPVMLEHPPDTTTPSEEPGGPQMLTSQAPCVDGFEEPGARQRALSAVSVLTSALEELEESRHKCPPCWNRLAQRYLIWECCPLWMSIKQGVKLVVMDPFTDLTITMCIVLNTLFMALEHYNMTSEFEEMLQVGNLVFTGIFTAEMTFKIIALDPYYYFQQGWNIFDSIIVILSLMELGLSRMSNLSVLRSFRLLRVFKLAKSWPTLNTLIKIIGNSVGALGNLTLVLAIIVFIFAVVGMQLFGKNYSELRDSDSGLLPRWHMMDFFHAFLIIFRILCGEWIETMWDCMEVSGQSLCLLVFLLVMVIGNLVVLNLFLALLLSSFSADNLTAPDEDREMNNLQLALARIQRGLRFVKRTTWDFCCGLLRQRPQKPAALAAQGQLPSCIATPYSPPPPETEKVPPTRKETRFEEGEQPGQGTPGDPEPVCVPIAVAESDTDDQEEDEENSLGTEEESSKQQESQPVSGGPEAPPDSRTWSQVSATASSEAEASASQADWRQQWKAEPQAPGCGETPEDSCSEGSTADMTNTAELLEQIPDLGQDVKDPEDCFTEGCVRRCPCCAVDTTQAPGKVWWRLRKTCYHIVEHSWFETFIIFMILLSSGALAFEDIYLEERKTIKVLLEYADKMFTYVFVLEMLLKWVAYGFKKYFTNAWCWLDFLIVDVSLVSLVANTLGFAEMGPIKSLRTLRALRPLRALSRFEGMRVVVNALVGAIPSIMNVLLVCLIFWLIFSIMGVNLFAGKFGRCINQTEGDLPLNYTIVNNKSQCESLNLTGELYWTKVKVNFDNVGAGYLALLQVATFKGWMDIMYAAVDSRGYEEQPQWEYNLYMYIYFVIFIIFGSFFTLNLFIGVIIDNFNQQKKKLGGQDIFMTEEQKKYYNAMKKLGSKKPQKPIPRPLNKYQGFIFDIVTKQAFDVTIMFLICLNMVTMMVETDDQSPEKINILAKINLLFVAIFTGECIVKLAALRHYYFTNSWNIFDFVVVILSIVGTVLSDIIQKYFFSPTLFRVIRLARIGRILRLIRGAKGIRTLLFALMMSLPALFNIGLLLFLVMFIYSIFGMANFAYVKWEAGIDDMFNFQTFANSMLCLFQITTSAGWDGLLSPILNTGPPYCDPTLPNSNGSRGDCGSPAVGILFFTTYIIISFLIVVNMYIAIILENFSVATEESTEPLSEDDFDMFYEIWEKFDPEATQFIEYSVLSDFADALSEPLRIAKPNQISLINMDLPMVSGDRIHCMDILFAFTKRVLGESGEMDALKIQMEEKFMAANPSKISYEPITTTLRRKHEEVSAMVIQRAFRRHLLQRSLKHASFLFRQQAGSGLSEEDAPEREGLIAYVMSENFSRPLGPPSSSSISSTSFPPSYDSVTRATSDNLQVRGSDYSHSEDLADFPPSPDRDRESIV

Take `CN(Cc1ccccc1)c1nc(N)nc(-c2noc(-c3ccco3)n2)n1` [Example 20, N-Benzyl-6-(5-furan-2-yl-[1,2,4]oxadiazol-3-yl)-N-methyl-[1,3,5]triazine-2,4-diamine]: the IC50 in experiment [1] is under 3000 nM.
For the compound `CCN(c1ccccc1)c1nc(N)nc(-c2noc(-c3ccccc3OC)n2)n1` [Example 95, N-Ethyl-6-[5-(2-methoxy-phenyl)-[1,2,4]oxadiazol-3-yl]-N-phenyl-[1,3,5]triazine-2,4-diamine], the values for the IC50 in experiment [2] (setting [6]) and in experiment [3] were 46 nM and 3700 nM, respectively.
For `CN(c1nc(N)nc(-c2noc(-c3ccco3)n2)n1)c1ccccc1Cl` [Example 17, N-(2-Chloro-phenyl)-6-(5-furan-2-yl-[1,2,4]oxadiazol-3-yl)-N-methyl-[1,3,5]triazine-2,4-diamine], the IC50 in experiment [1] is under 5000 nM.
`COc1cccnc1-c1nc(-c2nc(N)nc(N(C)c3ccccc3)n2)no1` [Example 132, 6-[5-(3-Methoxy-2-pyridyl)-[1,2,4]oxadiazol-3-yl]-N-methyl-N-phenyl-[1,3,5]triazine-2,4-diamine]: the IC50 was found to be 397 nM in experiment [4] and 2600 nM in experiment [3].
As for `CN(c1cccc(Cl)c1)c1nc(N)nc(-c2noc(-c3ccco3)n2)n1` [Example 7, 6-(5-Furan-2-yl-[1,2,4]oxadiazol-3-yl)-N-methyl-N-(3-chlorophenyl)-[1,3,5]triazine-2,4-diamine], the IC50 was determined as 187 nM in experiment [2] (setting [6]) and 847 nM in experiment [3].
On to `COc1cccc(-c2nc(-c3nc(N)nc(N(C)c4ccccc4)n3)no2)c1` [Example 24, 6-[5-(3-Methoxy-phenyl)-[1,2,4]oxadiazol-3-yl]-N-methyl-N-phenyl-[1,3,5]triazine-2,4-diamine], for which the IC50 in experiment [1] is under 500 nM.
On the same count and under the same terms, the same measure for `Cc1ccccc1N(C)c1nc(N)nc(-c2noc(-c3ccco3)n2)n1` [Example 18, 6-(5-Furan-2-yl-[1,2,4]oxadiazol-3-yl)-N-methyl-N-o-tolyl-[1,3,5]triazine-2,4-diamine]: under 5000 nM.
Consider `CN(c1ccccc1)c1nc(N)nc(-c2noc(C(=O)NC3CCCC3)n2)n1` [Example 72, 3-[4-Amino-6-(methyl-phenyl-amino)-[1,3,5]triazin-2-yl]-[1,2,4]oxadiazole-5-carboxylic acid cyclopentylamide], for which the IC50 in experiment [5] turned out to be 5.96 µM; in experiment [4], 288 nM.
On to `CN(c1ccccc1)c1nc(N)nc(-c2noc(-c3ccco3)n2)n1` [Example 1, 6-(5-Furan-2-yl-[1,2,4]oxadiazol-3-yl)-N-methyl-N-phenyl-[1,3,5]triazine-2,4-diamine], for which the figures for the IC50 in experiment [2] (setting [6]) and in experiment [3] were 212 nM and 2430 nM, respectively.
Take `Nc1nc(-c2noc(-c3ccco3)n2)nc(N(CC(F)(F)F)c2ccccc2)n1` [Example 68, 6-(5-Furan-2-yl-[1,2,4]oxadiazol-3-yl)-N-phenyl-N-(2,2,2-trifluoro-ethyl)-[1,3,5]triazine-2,4-diamine]: the figures for the IC50 in experiment [4] and in experiment [3] were 225 nM and over 10000 nM, respectively.
For `Nc1nc(-c2noc(-c3ccco3)n2)nc(N2CCc3ccccc32)n1` [Example 22, 4-(2,3-Dihydro-indol-1-yl)-6-(5-furan-2-yl-[1,2,4]oxadiazol-3-yl)-[1,3,5]triazin-2-ylamine], the IC50 in experiment [1] was under 1000 nM.
Still for that read-out and setting: the same measure for `Nc1nc(Nc2cccc(Cl)c2)nc(-c2noc(-c3ccco3)n2)n1` [Example 32, N-(3-Chloro-phenyl)-6-(5-furan-2-yl-[1,2,4]oxadiazol-3-yl)-[1,3,5]triazine-2,4-diamine]: under 500 nM.
On to `CCN(c1ccccc1)c1nc(N)nc(-c2noc(-c3ccco3)n2)n1` [Example 21, N-Ethyl-6-(5-furan-2-yl-[1,2,4]oxadiazol-3-yl)-N-phenyl-[1,3,5]triazine-2,4-diamine], for which the IC50 was found to be 249 nM in experiment [2] (setting [6]) and 2060 nM in experiment [3].
As to `Nc1nc(Nc2ccccc2)nc(-c2noc(-c3ccc(OCC(F)(F)F)nc3)n2)n1` [Example 41, 2-N-Phenyl-6-{5-[6-(2,2,2-trifluoroethoxy)pyridin-3-yl]-1,2,4-oxadiazol-3-yl}-1,3,5-triazine-2,4-diamine], the IC50 in experiment [5] is 0.334 µM; in experiment [4] it was 673 nM.
As to `CN(c1cccc(C(F)(F)F)c1)c1nc(N)nc(-c2noc(-c3ccco3)n2)n1` [Example 33], in experiment [1], the IC50 was under 1000 nM.
For the compound `COc1ccc(-c2nc(-c3nc(N)nc(N(C)c4ccccc4)n3)no2)nc1` [Example 118, 6-[5-(5-Methoxy-pyridin-2-yl)-[1,2,4]oxadiazol-3-yl]-N-methyl-N-phenyl-[1,3,5]triazine-2,4-diamine], the IC50 came to 294 nM in experiment [4] and 3340 nM in experiment [3].
As for `CN(c1cccc(F)c1)c1nc(N)nc(-c2noc(-c3ccccc3Cl)n2)n1` [Example 86, 6-[5-(2-Chloro-phenyl)-[1,2,4]oxadiazol-3-yl]-N-(3-fluoro-phenyl)-N-methyl-[1,3,5]triazine-2,4-diamine], the values for the IC50 in experiment [2] (setting [6]) and in experiment [3] were 126 nM and 300 nM, respectively.
For `CN(c1nc(N)nc(-c2noc(-c3ccco3)n2)n1)c1cccc(F)c1F` [Example 34, 6-(5-Furan-2-yl-[1,2,4]oxadiazol-3-yl)-N-methyl-N-(2,3-difluorophenyl)-[1,3,5]triazine-2,4-diamine], the IC50 in experiment [1] is under 500 nM.
Turning to `COc1ccccc1-c1nc(-c2nc(N)nc(N(C)c3cccc(Cl)c3)n2)no1` [Example 100, N-(3-Chloro-phenyl)-6-[5-(2-methoxy-phenyl)-[1,2,4]oxadiazol-3-yl]-N-methyl-[1,3,5]triazine-2,4-diamine], the IC50 in experiment [4] turned out to be 118 nM; in experiment [3], 126 nM.
For the compound `CN(c1ccc(F)cc1)c1nc(N)nc(-c2noc(-c3ccco3)n2)n1` [Example 16, N-(4-Fluoro-phenyl)-6-(5-furan-2-yl-[1,2,4]oxadiazol-3-yl)-N-methyl-[1,3,5]triazine-2,4-diamine], the IC50 in experiment [2] (setting [6]) was determined as 264 nM; in experiment [3], 1050 nM.
On to `CN(c1ccccc1)c1nc(N)nc(-c2noc(-c3cccnc3OCC(F)(F)F)n2)n1` [Example 477, 2-N-methyl-2-N-phenyl-6-{5-[2-(2,2,2-trifluoroethoxy)pyridin-3-yl]-1,2,4-oxadiazol-3-yl}-1,3,5-triazine-2,4-diamine], for which the IC50 in experiment [2] (marker b = Manual patch clamp data) was 172 nM.
Consider `Cc1ccc(-c2nc(-c3nc(N)nc(N(C)c4ccccc4)n3)no2)o1` [Example 19, N-Methyl-6-[5-(5-methyl-furan-2-yl)-[1,2,4]oxadiazol-3-yl]-N-phenyl-[1,3,5]triazine-2,4-diamine], for which, in experiment [1], the IC50 came out at 61 nM.
For the compound `CN(c1cccc(F)c1)c1nc(N)nc(-c2noc(-c3ccco3)n2)n1` [Example 15, N-(3-Fluoro-phenyl)-6-(5-furan-2-yl-[1,2,4]oxadiazol-3-yl)-N-methyl-[1,3,5]triazine-2,4-diamine], in experiment [2] (setting [6]), the IC50 is 152 nM.
With `CN(c1nc(N)nc(-c2noc(-c3ccco3)n2)n1)c1cc(Cl)ccc1F` [Example 103, N-(5-Chloro-2-fluoro-phenyl)-6-(5-furan-2-yl-[1,2,4]oxadiazol-3-yl)-N-methyl-[1,3,5]triazine-2,4-diamine], the values for the IC50 in experiment [2] (setting [6]) and in experiment [3] were 42 nM and 215 nM, respectively.

The values are drawn from patent US8895733B2 (Novartis AG, priority 2010, dated 2014).
